This note sets out measurements from US9326513B2, “Fungicidal compositions” (Syngenta Participations AG, priority 2011, dated 2016).

One test deals with Botrytis cinerea. As to the kind of experiment: Botrytis cinerea (gray mould), PDB microtiter plate, visual after 72 hrs. Type of test: cell-based. The following applies: alone.
The test system of another test is Gaeumannomvces graminis. Briefly: Gaeumannomvces graminis (take-all of cereals), PDB microtiter plate, visual after 48 hrs. The class given is cell-based. As to conditions: solo. An excerpt:
In the following Tables ‘Activity (%)’ means the assessed experimental activity (% disease control in this test when compared to untreated control leaf disks under the same conditions, which show extensive disease development) and “P” is the expected value calculated (expected) activity according to the COLBY formula (see above). The column headed ‘S?’ indicates whether or not synergy was observed, with ‘y’ meaning that synergy was observed. Gaeumannomvces graminis (Take-all of Cereals) Mycelial fragments of the fungus from cryogenic storage were directly mixed into nutrient broth (PDB potato dextrose broth). After placing a (DMSO) solution of the test compounds into a microtiter plate (96-well format) the nutrient broth containing the fungal spores was added.

Test [1] deals with Monographella nivalis (syn. Microdochium nivale, Fusarium nivale). As to the kind of experiment: Monographella nivalis (snow mould, foot rot of cereals), PDB microtiter plate, visual after 72 hrs. Type of test: cell-based. The following applies: Monographella nivalis.
The test system of a further test is Sclerotinia sclerotiorum. As to the kind of experiment: Sclerotinia sclerotiorum on oilseed rape, preventive treatment. The class given is in vivo. As to conditions: solo, 1 day preventive, 11 days after application. An excerpt: (§1) In the following Tables ‘Activity (%)’ means the assessed experimental activity (% disease control in this test when compared to untreated control leaf disks under the same conditions, which show extensive disease development) and “P” is the expected value calculated (expected) activity according to the COLBY formula (see above). The column headed ‘S?’ indicates whether or not synergy was observed, with ‘y’ meaning that synergy was observed.
Sclerotinia sclerotiorum on Oilseed Rape, Preventive Treatment
The compound activity was tested under 1 day preventive conditions. Oilseed rape plants with 3 unfolded leafs were sprayed with a track sprayer and 200 I/ha spray volume with the test compounds, either solo or in tankmix as shown in the table below.
1 day after application the plants were infested with a solution of Sclerotinia sclerotiorum mycelium. The plants were placed under plastic hoods and high humidity conditions in a climate chamber at 14 h day/10 h night cycle and 15° C. Disease infestation was evaluated visually 11 days after application and average activity calculated in relation to disease severity on untreated check.

In test [2] the test system is Septoria tritici. Briefly: Septoria tritici (leaf blotch), YBG microtiter plate, photometric growth inhibition after 6 days. Type of test: cell-based. The following applies: Zymoseptoria tritici, 144 h, solo.
Description: as §1
Septoria tritici (Leaf Blotch):
After placing solutions of the test compounds (containing 0.2% DMSO) into a microtiter plate (96-well format), an equal amount of the nutrient broth (YBG) was added to each of the well. Finally the fungal spore solution was added. The test plates were incubated at 20° C. The inhibition of growth was determined photometrically after 6 days and the activity calculated in relation to untreated control.

The test system of test [3] is Phakopsora pachyrhizi (triazole tolerant soybeanrust strain). Briefly: Phakopsora pachyrhizi on soybean, preventive treatment. Type of test: in vivo. The following applies: solo, soybean leaf discs, 1 day preventive, 11 days after application.
The next test relates to Pythium ultimum. As to the kind of experiment: Pythium ultimum (damping off), PDB microtiter plate, visual after 48 hrs. The class given is cell-based. As to conditions: solo, rate 0.03125 ppm.
Test [4] relates to Fusarium graminearum and Fusarium culmorum. The class given is in vivo. As to conditions: solo, wheat, 1 day preventive, 9 days after application.
Test [5] deals with Septoria tritici. As to the kind of experiment: Septoria tritici (leaf blotch), PDB microtiter plate, visual after 72 hrs. The following applies: Zymoseptoria tritici, single compound, 0.0125 ppm. The class given is cell-based.
Test [6] has as its system Puccinia recondita f. sp. tritici. Briefly: Puccinia recondita f. sp. tritici / wheat / leaf disc curative (brown rust). The class given is in vivo. As to conditions: foliar, compared to untreated control leaf disks, read-out: disease control. Here is the method: Puccinia recondita f. sp. tritici/Wheat/Leaf Disc Curative (Brown Rust) Wheat leaf segments cv. Kanzler are placed on agar in multiwell plates (24-well format). The leaf segments are inoculated with a spore suspension of the fungus. Plates were stored in darkness at 19° C. and 75% rh. The formulated test compound diluted in water was applied 1 day after inoculation.

Another test relates to Pyrenophora teres. As to the kind of experiment: Pyrenophora teres / barley / leaf disc preventative (net blotch). Type of test: in vivo. As to conditions: foliar, compared to untreated control leaf disks, read-out: disease control. An excerpt: Pyrenophora teres/Barley/Leaf Disc Preventative (Net Blotch) Barley leaf segments cv. Hasso were placed on agar in a multiwell plate (24-well format) and sprayed with the formulated test compound diluted in water. The leaf segments were inoculated with a spore suspension of the fungus 2 days after application.

In test [7] the test system is Blumeria graminis f. sp. tritici (Erysiphe graminis f. sp. tritici). Briefly: Blumeria graminis f. sp. tritici / wheat / leaf disc preventative (powdery mildew on wheat). As to conditions: foliar, compared to untreated control leaf disks, read-out: disease control. Type of test: in vivo. Summed up:
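Wheat leaf segments (cv. Kanzler) on agar were sprayed with formulated compound in water, inoculated with powdery mildew 1 day later, and kept at 20° C, 60% rh (24 h dark, then 12 h light/12 h dark). Percent disease control versus untreated scored 6-8 days after application; tested at 200 ppm.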

Test [8] concerns Puccinia recondita f. sp. tritici. As to the kind of experiment: Puccinia recondita f. sp. tritici / wheat / leaf disc preventative (brown rust). Type of test: in vivo. As to conditions: foliar, compared to untreated control leaf disks, read-out: disease control. An excerpt:
Puccinia recondita f. sp. tritici/Wheat/Leaf Disc Preventative (Brown Rust) Wheat leaf segments cv. Kanzler were placed on agar in multiwell plates (24-well format) and sprayed with the formulated test compound diluted in water. The leaf disks were inoculated with a spore suspension of the fungus 1 day after application.

Test [9] relates to Septoria tritici. Briefly: Septoria tritici on wheat, preventive treatment. The class given is in vivo. As to conditions: solo, wheat Riband, 1 day preventive, 18 days after application.

Several values for one entry are separate records, joined by “and”; a condition that tells them apart may be missing. Identical values can stand only once. Like-named read-outs stand apart in the source and are kept apart here. Some results are limits rather than exact numbers.

For `Cn1cc(C(=O)Nc2cccc3c2C2CCC3C2=C(Cl)Cl)c(C(F)F)n1` (centres unmarked) [(V), N-[9-(dichloromethylene)-1,2,3,4-tetrahydro-1,4-methanonaphthalen-5-yl]-3-(difluoromethyl)-1-methyl-1H-pyrazole-4-carboxamide, reference compound], the inhibition at 0.015625 ppm in the test with Botrytis cinerea (Botrytis cinerea, rate 0.015625 ppm) was determined as 20%; with Gaeumannomvces graminis (rate 0.015625 ppm), 0%. For the same compound, the inhibition at 0.03125 ppm in the test with Botrytis cinerea (Botrytis cinerea, rate 0.03125 ppm, read-out: Activity (%)) is 50%; with Gaeumannomvces graminis (rate 0.03125 ppm), 20%; in [1] (applied alone, 0.03125 ppm), 0%; in [1] (applied alone, rate 0.03125 ppm), 0%. Besides, the inhibition at 0.0625 ppm in the test with Botrytis cinerea (Botrytis cinerea, rate 0.0625 ppm, read-out: Activity (%)) turned out to be 70%; in the test with Gaeumannomvces graminis (rate 0.0625 ppm) it was 70%; in test [1] (applied alone, 0.0625 ppm), 50%; in test [1] (applied alone, rate 0.0625 ppm) it was 50%. Further, the inhibition at 0.125 ppm amounted to 70% with Botrytis cinerea (Botrytis cinerea, rate 0.125 ppm) and 70% in [1] (applied alone, 0.125 ppm).

Regarding `O=C(Nc1ccccc1-c1ccc(Cl)cc1)c1cccnc1Cl` [Boscalid], the figures for the Activity in the test with Sclerotinia sclerotiorum (rate 50 g a.i./ha) and in the test on Sclerotinia sclerotiorum (rate 100 g a.i./ha) were 8% and 25%, respectively.

Take `CC(C1CC1)C(O)(Cn1cncn1)c1ccc(Cl)cc1` (centres unmarked) [Cyproconazole]: in the test on Septoria tritici [2] (rate 0.25 ppm), the inhibition of growth at 0.25 ppm was found to be 0%. In addition, in the test on Septoria tritici [2] (rate 0.5 ppm), the inhibition of growth at 0.5 ppm turned out to be 64%. Also, the inhibition of growth at 1 ppm in the test on Septoria tritici [2] (rate 1 ppm) was found to be 84%. In addition, the inhibition of growth at 1.25 ppm in the test on Septoria tritici [2] (rate 1.25 ppm) was found to be 39%. Besides, the inhibition of growth at 2.5 ppm in the test on Septoria tritici [2] (rate 2.5 ppm) was 76%. For the same compound, the figures for the Activity in test [3] (rate 0.5 g ai/ha) and in [3] (rate 2 g ai/ha) were 38% and 53%, respectively.

For `COCC(=O)N(c1c(C)cccc1C)[C@H](C)C(=O)OC` [Mefenoxam], in the test with Pythium ultimum, the “Activity (%)” value is given as 50%.

In the case of `OC(Cc1ccccc1Cl)(Cn1nc[nH]c1=S)C1(Cl)CC1` (centres unmarked) [Prothioconazole], the inhibition of growth at 0.0195312 ppm in the test with Septoria tritici [2] (rate 0.01953125 ppm) was found to be 69%. In addition, the inhibition of growth at 0.03125 ppm in the test with Septoria tritici [2] (rate 0.03125 ppm, read-out: Activity) was determined as 9%. Moreover, the inhibition of growth at 0.0390625 ppm with Septoria tritici [2] (rate 0.0390625 ppm) stood at 63%. In the test with Septoria tritici [2] (rate 0.0625 ppm), the inhibition of growth at 0.0625 ppm stood at 63%. Besides, the inhibition at 0.00625 ppm is 0% in the test on Botrytis cinerea (Botrytis cinerea, rate 0.00625 ppm) and 0% in test [1] (applied alone, rate 0.00625 ppm). Further, the inhibition at 0.0125 ppm with Botrytis cinerea (Botrytis cinerea, rate 0.0125 ppm) was 0%; in [1] (applied alone, 0.0125 ppm), 0%; in test [1] (applied alone, rate 0.0125 ppm) it was 0%; in [1] (single compound, rate 0.0125 ppm), 0%; with Septoria tritici [5], 70%. In the test with Botrytis cinerea (Botrytis cinerea, rate 0.025 ppm), this compound gave an inhibition at 0.025 ppm of 0%. In the test on Botrytis cinerea (Botrytis cinerea, rate 0.05 ppm), the inhibition at 0.05 ppm was found to be 50%. The “Activity (%)” value in the test with Botrytis cinerea (rate 0.05 ppm) is reported as 70%. The compound also yielded an inhibition at 0.0015625 ppm in [1] (applied alone, rate 0.0015625 ppm) of 0%. For the same compound, the inhibition at 0.003125 ppm in test [1] (applied alone, rate 0.003125 ppm) was 0%. In addition, the Activity in test [4] (50 g a.i./ha) came to 55%.

For the compound `CCN(C)/C=N/c1cc(Br)c(OC2CC=CC2)nc1C` [Q.063], the pest or weed control at 200 ppm (in test [6]; with Pyrenophora teres; in test [7]; in test [8]) was ≥ 50% in each case. Further, the Activity in test [3] (rate 0.5 g ai/ha) and in [3] (rate 2 g ai/ha) was 0% throughout.

In the case of `CCN(C)/C=N/c1cc(Br)c(OCc2ccccc2C)nc1C` [Q.151], the pest or weed control at 200 ppm in test [6], in test [7] and in [8] was ≥ 50% each time. Further, the Activity in the test with Septoria tritici [9] (1 g a.i./ha) is 0%; with Septoria tritici [9] (3 g a.i./ha) it was 0% and 4%; with Septoria tritici [9] (9 g a.i./ha), 0%; in the test with Septoria tritici [9] (81 g a.i./ha), 43%; in test [4] (200 g a.i./ha), 3%.
